Source: patent US20240336654A1, “ANTIMICROBIAL PEPTIDOMIMETICS” (SPEXIS AG, priority 2021, published 2024)
Where a SMILES comes first, the peptide text is derived from it. Bridges are numbered along the chain shown (N, C = ends). [ ]: non-standard residue; d: D form. The star is where a group is joined. Val(Nα-amidino) = CC(C)[C@H](NC(=N)N)C(=O)*; Hyp = O=C(O)[C@@H]1C[C@@H](O)CN1; Cit = NC(=O)NCCC[C@H](N)C(=O)O; Pen = CC(C)(S)[C@H](N)C(=O)O; dDab = NCC[C@@H](N)C(=O)O; Orn = NCCC[C@H](N)C(=O)O; Dab = NCC[C@H](N)C(=O)O

What was measured:
Type in all cases: cell-based
[1] = tested on: Escherichia coli ATCC 25922; settings: ATCC 25922
Outline: (§1)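 The MIC is the lowest peptide concentration, in μg/mL, with no visible growth after 18-20 h incubation at 35 °C. Serial two-fold peptide dilutions in water with 0.002% P-80 final were added to bacteria in cation-adjusted MHII broth, about 5×10^5 CFU/mL, following modified CLSI microdilution.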

[2] = tested on: Escherichia coli MCR-1 Af 45; settings: MCR-1 Af 45
Outline: as §1

[3] = tested on: Klebsiella pneumoniae SSI3010; settings: SSI3010
Outline: as §1

[4] = tested on: human red blood cells (hRBC); settings: red cells of human, 1 h, 200 μg/mL
Outline: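 Percent hemolysis derived from OD540 of supernatants relative to full lysis by 2.5% Triton X-100 (PBS baseline). Washed fresh human erythrocytes (20% v/v) were exposed to 200 μg/mL peptide for 1 h at 37 °C with shaking.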

| Structure (SMILES) | Escherichia coli ATCC 25922 MIC [1] [µg/mL] | Escherichia coli MCR-1 Af45 MIC [2] [µg/mL] | Klebsiella pneumoniae SSI3010 MIC [3] [µg/mL] | Hemolysis at 0.2 g/L [4] [%] |
| --- | --- | --- | --- | --- |
| CC[C@H](C)[C@H](NC(=O)[C@@H]1C[C@@H](O)CN1C(=O)[C@@H](NC(=N)N)C(C)C)C(=O)N[C@@H]1C(=O)N[C@@H](Cc2ccc(O)cc2)C(=O)N[C@@H]([C@@H](C)O)C(=O)N[C@@H](CC(N)=O)C(=O)N[C@@H](CCCNC(=N)N)C(=O)N[C@@H](CCN)C(=O)N[C@@H]([C@@H](C)O)C(=O)N[C@H](CCN)C(=O)N[C@@H](CO)C(=O)N[C@@H](CCN)C(=O)N[C@@H](CCCN)C(=O)N[C@H](C(=O)N[C@@H](Cc2ccc(O)cc2)C(=O)O)CSSC1(C)C [Example 100, Gua-Val-Hyp-Ile-Pen-Tyr-Thr-Asn-Arg-Dab-Thr-^DDab-Ser-Dab-Orn-Cys-Tyr] ({Val(Nα-amidino)}-[Hyp]I[Pen]YTNR[Dab]T[dDab]S[Dab][Orn]CY-OH; disulfide 3-14) | 0.25 | 0.25 | 0.5 | <1 |
| CC[C@H](C)[C@H](NC(=O)[C@@H]1C[C@@H](O)CN1C(=O)[C@@H](NC(=N)N)C(C)C)C(=O)N[C@@H]1C(=O)N[C@@H](Cc2ccc(O)cc2)C(=O)N[C@@H](CCN)C(=O)N[C@@H](CC(N)=O)C(=O)N[C@@H](CCCNC(=N)N)C(=O)N[C@@H](CCN)C(=O)N[C@@H]([C@@H](C)O)C(=O)N[C@H](CCN)C(=O)N[C@@H](CCCCN)C(=O)N[C@@H]([C@@H](C)O)C(=O)N[C@@H](CCN)C(=O)N[C@H](C(=O)N[C@@H](Cc2ccc(O)cc2)C(=O)O)CSSC1(C)C [Example 101, Gua-Val-Hyp-Ile-Pen-Tyr-Dab-Asn-Arg-Dab-Thr-^DDab-Lys-Thr-Dab-Cys-Tyr] ({Val(Nα-amidino)}-[Hyp]I[Pen]Y[Dab]NR[Dab]T[dDab]KT[Dab]CY-OH; disulfide 3-14) | 0.125 | 0.125 | 0.5 | <1 |
| CC[C@H](C)[C@H](NC(=O)[C@@H]1C[C@@H](O)CN1C(=O)[C@@H](NC(=N)N)C(C)C)C(=O)N[C@@H]1C(=O)N[C@@H](Cc2ccc(O)cc2)C(=O)N[C@@H](CCN)C(=O)N[C@@H](CC(N)=O)C(=O)N[C@@H](CCCNC(=N)N)C(=O)N[C@@H](CCN)C(=O)N[C@@H]([C@@H](C)O)C(=O)N[C@H](CCN)C(=O)N[C@@H](CO)C(=O)N[C@@H]([C@@H](C)O)C(=O)N[C@@H](CCN)C(=O)N[C@H](C(=O)N[C@@H](Cc2ccc(O)cc2)C(=O)O)CSSC1(C)C [Example 102, Gua-Val-Hyp-Ile-Pen-Tyr-Dab-Asn-Arg-Dab-Thr-^DDab-Ser-T-Dab-Cys-Tyr] ({Val(Nα-amidino)}-[Hyp]I[Pen]Y[Dab]NR[Dab]T[dDab]ST[Dab]CY-OH; disulfide 3-14) | 0.25 | 0.25 | 0.5 | <1 |
| CC[C@H](C)[C@H](NC(=O)[C@@H]1C[C@@H](O)CN1C(=O)[C@@H](NC(=N)N)C(C)C)C(=O)N[C@@H]1C(=O)N[C@@H](Cc2ccc(O)cc2)C(=O)N[C@@H]([C@@H](C)O)C(=O)N[C@@H](CC(N)=O)C(=O)N[C@@H](CCCNC(=N)N)C(=O)N[C@H](CCN)C(=O)N[C@@H]([C@@H](C)O)C(=O)N[C@H](CCN)C(=O)N[C@@H](CO)C(=O)N[C@@H](CCN)C(=O)N[C@@H](CCN)C(=O)N[C@H](C(=O)N[C@@H](Cc2ccc(O)cc2)C(=O)O)CSSC1(C)C [Example 103, Gua-Val-Hyp-Ile-Pen-Tyr-Thr-Asn-Arg-^DDab-Thr-^DDab-Ser-Dab-Dab-Cys-Tyr] ({Val(Nα-amidino)}-[Hyp]I[Pen]YTNR[dDab]T[dDab]S[Dab][Dab]CY-OH; disulfide 3-14) | 0.125 | 0.125 | 0.25 | <1 |
| CC[C@H](C)[C@H](NC(=O)[C@@H]1C[C@@H](O)CN1C(=O)[C@@H](NC(=N)N)C(C)C)C(=O)N[C@@H]1C(=O)N[C@@H](Cc2ccc(O)cc2)C(=O)N[C@@H](CO)C(=O)N[C@@H](CC(N)=O)C(=O)N[C@@H](CCCNC(=N)N)C(=O)N[C@H](CCN)C(=O)N[C@@H]([C@@H](C)O)C(=O)N[C@H](CCN)C(=O)N[C@@H](CO)C(=O)N[C@@H](CCN)C(=O)N[C@@H](CCN)C(=O)N[C@H](C(=O)N[C@@H](Cc2ccc(O)cc2)C(=O)O)CSSC1(C)C [Example 104, Gua-Val-Hyp-Ile-Pen-Tyr-Ser-Asn-Arg-^DDab-Thr-^DDab-Ser-Dab-Dab-Cys-Tyr] ({Val(Nα-amidino)}-[Hyp]I[Pen]YSNR[dDab]T[dDab]S[Dab][Dab]CY-OH; disulfide 3-14) | 0.25 | 0.25 | 0.25 | <1 |
| CC[C@H](C)[C@H](NC(=O)[C@@H]1C[C@@H](O)CN1C(=O)[C@@H](NC(=N)N)C(C)C)C(=O)N[C@@H]1C(=O)N[C@@H](Cc2ccc(O)cc2)C(=O)N[C@@H]([C@@H](C)O)C(=O)N[C@@H](CC(N)=O)C(=O)N[C@@H](CCCNC(=N)N)C(=O)N[C@@H](CCN)C(=O)N[C@@H]([C@@H](C)O)C(=O)N[C@H](CCN)C(=O)N[C@@H](CC(N)=O)C(=O)N[C@@H](CCN)C(=O)N[C@@H](CCN)C(=O)N[C@H](C(=O)N[C@@H](Cc2ccc(O)cc2)C(=O)O)CSSC1(C)C [Example 105, Gua-Val-Hyp-Ile-Pen-Tyr-Thr-Asn-Arg-Dab-Thr-^DDab-Asn-Dab-Dab-Cys-Tyr] ({Val(Nα-amidino)}-[Hyp]I[Pen]YTNR[Dab]T[dDab]N[Dab][Dab]CY-OH; disulfide 3-14) | 0.125 | 0.125 | 0.25 | <1 |
| CC[C@H](C)[C@H](NC(=O)[C@@H]1C[C@@H](O)CN1C(=O)[C@@H](NC(=N)N)C(C)C)C(=O)N[C@@H]1C(=O)N[C@@H](Cc2ccc(O)cc2)C(=O)N[C@@H](CO)C(=O)N[C@@H](CC(N)=O)C(=O)N[C@@H](CCCNC(=N)N)C(=O)N[C@@H](CCN)C(=O)N[C@@H]([C@@H](C)O)C(=O)N[C@H](CCN)C(=O)N[C@@H](CCCNC(N)=O)C(=O)N[C@@H](CCN)C(=O)N[C@@H](CCN)C(=O)N[C@H](C(=O)N[C@@H](Cc2ccc(O)cc2)C(=O)O)CSSC1(C)C [Example 106, Gua-Val-Hyp-Ile-Pen-Tyr-Ser-Asn-Arg-Dab-Thr-^DDab-Cit-Dab-Dab-Cys-Tyr] ({Val(Nα-amidino)}-[Hyp]I[Pen]YSNR[Dab]T[dDab][Cit][Dab][Dab]CY-OH; disulfide 3-14) | 0.125 | 0.125 | 0.25 | <1 |
| CC[C@H](C)[C@H](NC(=O)[C@@H]1C[C@@H](O)CN1C(=O)[C@@H](NC(=N)N)C(C)C)C(=O)N[C@@H]1C(=O)N[C@@H](Cc2ccc(O)cc2)C(=O)N[C@@H](CO)C(=O)N[C@@H](CC(N)=O)C(=O)N[C@@H](CCCNC(=N)N)C(=O)N[C@@H](CCN)C(=O)N[C@@H]([C@@H](C)O)C(=O)N[C@H](CCN)C(=O)N[C@@H](CC(N)=O)C(=O)N[C@@H](CCN)C(=O)N[C@@H](CCN)C(=O)N[C@H](C(=O)N[C@@H](Cc2ccc(O)cc2)C(=O)O)CSSC1(C)C [Example 107, Gua-Val-Hyp-Ile-Pen-Tyr-Ser-Asn-Arg-Dab-Thr-^DDab-Asn-Dab-Dab-Cys-Tyr] ({Val(Nα-amidino)}-[Hyp]I[Pen]YSNR[Dab]T[dDab]N[Dab][Dab]CY-OH; disulfide 3-14) | 0.125 | 0.125 | 0.25 | <1 |
| CC[C@H](C)[C@H](NC(=O)[C@@H]1C[C@@H](O)CN1C(=O)[C@@H](NC(=N)N)C(C)C)C(=O)N[C@@H]1C(=O)N[C@@H](Cc2ccc(O)cc2)C(=O)N[C@@H]([C@@H](C)O)C(=O)N[C@@H](CC(N)=O)C(=O)N[C@@H](CCCNC(=N)N)C(=O)N[C@@H](CCN)C(=O)N[C@@H]([C@@H](C)O)C(=O)N[C@H](CCN)C(=O)N[C@@H](CCCCN)C(=O)N[C@@H](CCN)C(=O)N[C@@H](CO)C(=O)N[C@H](C(=O)N[C@@H](Cc2ccc(O)cc2)C(=O)O)CSSC1(C)C [Example 108, Gua-Val-Hyp-Ile-Pen-Tyr-Thr-Asn-Arg-Dab-Thr-Dab-Lys-Dab-S-Cys-Tyr] ({Val(Nα-amidino)}-[Hyp]I[Pen]YTNR[Dab]T[dDab]K[Dab]SCY-OH; disulfide 3-14) | 0.25 | 0.125 | 0.25 | <1 |
